# Measurements reported in patent US20210046125A1, “DECELLULARIZED TISSUES, HYDROGELS THEREOF, AND USES THEREOF” (UNIVERSITY OF FLORIDA RESEARCH FOUNDATION, priority 2018, published 2021).
# What was measured:
# rat sciatic nerve [1] = assay: TUNEL assay, preliminary studies; conditions: samples treated with camptothecin
# Excerpt: (§1) Briefly, the injectable tissue hydrogels of this Example were generated by digesting rat sciatic nerves that had been decellularized by inducing cell […] (or apoptosis). Apoptosis can cause cells to form small apoptotic bodies containing cellular components, which can be more easily removed from the matrix. This approach has the potential to enhance matrix preservation and bioactivity, thus having a major impact on tissue engineering. In this Example, rat sciatic nerves were first harvested and decellularized by inducing apoptosis (described elsewhere herein and e,g. FIG. 11). Washing in camptothecin can induce apoptosis. Hypertonic washing (e,g. 4× PBS) can aid in cell removal. DNase treatment can degrade residual DNA content. Treatment with Chondroitinase ABC can be used to remove inhibitory proteoglycans. After the decellularization process, the resulting decellularized tissue can undergo enzymatic processing and further processing to balance pH where necessary. In some cases the decellularized tissue can be lyophilized prior to enzymatic digestion. In this particular example, pepsin was used to digest tissue at an acidic pH. After about […] of enzymatic digestion, the solution can be neutralized and isotonically balanced. The solution was further diluted with PBS. In some embodiments, the solution was diluted to 1/9 th of its volume in 10× PBS. […]
# peripheral nerve tissue [2] = assay: Induction of apoptosis ex vivo (active caspase 3 immunochemistry, TUNEL); parameters: species or system Sprague Dawley rats; conditions: 10 μM camptothecin, 37° C., 2 days
# Experimental: Peripheral nerves were harvested from Sprague Dawley rats and decellularized according to an apoptosis-assisted protocol using 10 μM camptothecin in non-supplemented media at 37° C. for 2 days. Tissue in media without camptothecin was used as a control. Apoptotic agent treatment was succeeded by washes in saline buffered solutions to optimize cell removal. The degree of apoptosis, cellular removal, and matrix preservation was assessed using immunochemistry on nerve tissue sections and fluorescence imaging. Antibodies used to identify apoptosis, cell removal, and tissue preservation include those against active caspase 3 (Abcam); neurofilament (RT-97, DSHB) and 5100 (Dako); and laminin (Sigma), respectively, Apoptosis-mediated DNA fragmentation was assessed using a terminal deoxynucleotidyl transferase dUTP nick end labeling (TUNEL) assay. Total DNA content was quantified using a Picogreen DNA assay (Life Technologies) according to manufacturer's instructions. […] For FIGS. 5A and 5B, the images are fresh nerve (top half) and apoptosis decellularized nerve (bottom half). FIG. 5A was labeled for neurons (neurofilament, green), Schwann cells (S100, red), and nuclei (DAPI, blue). […] Induction of apoptosis was confirmed in treated nerve tissue by an increase in active caspase 3, an early mediator of apoptosis. […]
# rat sciatic nerve [3] = assay: QuantiFluor dsDNA assay, residual DNA content in tissue; conditions: apoptosis decellularization, QuantiFluor dsDNA kit
# Excerpt: as §1
# peripheral nerve tissue [4] = assay: Picogreen DNA assay, total DNA content of apoptosis-decellularized peripheral nerve; parameters: species or system Sprague Dawley rats
# Experimental: Peripheral nerves were harvested from Sprague Dawley rats and decellularized according to an apoptosis-assisted protocol using 5 μM camptothecin in non-supplemented media at 37° C. for 1 day. Tissue in media without camptothecin, an apoptotic agent, was used as a control. Apoptotic agent treatment was succeeded by washes in saline buffered solutions to optimize cell removal. Furthermore, the tissue was treated with 75 u/mL DNAse for 24 hours to ensure DNA removal. The degree of apoptosis, cellular removal, and matrix preservation was assessed using immunochemistry on nerve tissue sections and fluorescence imaging (FIG. 2). Antibodies used to identify apoptosis, cell removal, and tissue preservation include those against active caspase 3 (Abcam); neurofilament (RT-97, DSHB) and 5100 (Dako); and laminin (Sigma), respectively. […] FIGS. 2B and 2C show nerves treated with 5 μM for 1 day, washed with a hypertonic, and either washed with a […] or treated for 24 hours with DNAse, respectively. […] FIGS. 2E and 2F show treatment with higher camptothecin (10 μM), again for 1 day, and washed similarly to tissue in FIGS. 2B and 2C. These images depict 1) apoptosis induction is necessary prior to washing to effectively remove cellular components and 2) combing apoptosis induction with washes in non-isotonic solutions achieves cellular removal of peripheral nerve tissue. Total DNA content was quantified using a Picogreen DNA assay (Life Technologies) according to manufacturer's instructions.
compound,measurement,setting,value
CC[C@@]1(O)C(=O)OCc2c1cc1n(c2=O)Cc2cc3ccccc3nc2-1 [camptothecin],apoptosis by TUNEL assay,rat sciatic nerve [1],enhanced apoptosis
same,apoptosis ex vivo (caspase 3 activation and DNA fragmentation),peripheral nerve tissue [2],sufficient to elicit aspects of apoptosis ex vivo
same,DNA removal,rat sciatic nerve [3],greater than 90%
same,reduction in DNA compared to fresh nerve,"peripheral nerve tissue [4]; 5 μM camptothecin 1 day, hypertonic then hypotonic wash",71.9%
same,reduction in DNA compared to fresh nerve,"peripheral nerve tissue [4]; 5 μM camptothecin 1 day, hypotonic wash replaced with DNAse treatment",95.1%
same,reduction in DNA compared to fresh nerve,"peripheral nerve tissue [4]; 10 μM camptothecin 1 day, hypertonic then hypotonic wash",57.3%
same,reduction in DNA compared to fresh nerve,"peripheral nerve tissue [4]; 10 μM camptothecin 1 day, hypotonic wash replaced with DNAse treatment",95.8%
